Experiments:
Experiment in all cases: relative viability (nuclei count vs DMSO), 5 days (fraction); higher = more cells survive
Wnt-C59 + AZD7762 = compound: CC1=NC=CC(=C1)C2=CC=C(C=C2)CC(=O)NC3=CC=C(C=C3)C4=CN=CC=C4 [Wnt-C59] + NC(=O)Nc1cc(-c2cccc(F)c2)sc1C(=O)N[C@H]1CCCNC1 [AZD7762] (partner 0.2 µM)
Summary of the method: (§1)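 Values are medians from duplicate plates. Each reflects relative viability, defined as the nuclei count of treated wells over that of vehicle wells. Lung cancer cell lines in 1536-well plates were pin-tool dosed one day after seeding with one drug alone or with a fixed anchor-drug dose plus five library-drug doses (not always all listed) in √10 steps, then fixed, stained and imaged at 4× after 5 days.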

Wnt-C59 + Vorinostat = compound: CC1=NC=CC(=C1)C2=CC=C(C=C2)CC(=O)NC3=CC=C(C=C3)C4=CN=CC=C4 [Wnt-C59] + O=C(CCCCCCC(=O)Nc1ccccc1)NO [Vorinostat] (partner 1 µM)
Summary of the method: as §1

Lapatinib + Crizotinib = compound: CS(=O)(=O)CCNCc1ccc(-c2ccc3ncnc(Nc4ccc(OCc5cccc(F)c5)c(Cl)c4)c3c2)o1 [Lapatinib] + C[C@@H](Oc1cc(-c2cnn(C3CCNCC3)c2)cnc1N)c1c(Cl)ccc(F)c1Cl [Crizotinib] (partner 1 µM)
Summary of the method: as §1

Wnt-C59 + Alpelisib = compound: CC1=NC=CC(=C1)C2=CC=C(C=C2)CC(=O)NC3=CC=C(C=C3)C4=CN=CC=C4 [Wnt-C59] + Cc1nc(NC(=O)N2CCC[C@H]2C(N)=O)sc1-c1ccnc(C(C)(C)C(F)(F)F)c1 [Alpelisib] (partner 2 µM)
Summary of the method: as §1

Row | Cell Line | relative viability (Wnt-C59 + AZD7762; first compound 0.001 µM) | relative viability (Wnt-C59 + AZD7762; first compound 0.01 µM) | relative viability (Wnt-C59 + AZD7762; first compound 0.03162 µM) | relative viability (Wnt-C59 + AZD7762; first compound 0.1 µM) | relative viability (Wnt-C59 + Vorinostat; first compound 0.001 µM) | relative viability (Wnt-C59 + Vorinostat; first compound 0.01 µM) | relative viability (Wnt-C59 + Vorinostat; first compound 0.03162 µM) | relative viability (Wnt-C59 + Vorinostat; first compound 0.1 µM) | relative viability (Lapatinib + Crizotinib; first compound 0.2 µM) | relative viability (Lapatinib + Crizotinib; first compound 0.6325 µM) | relative viability (Lapatinib + Crizotinib; first compound 2 µM) | relative viability (Wnt-C59 + Alpelisib; first compound 0.001 µM) | relative viability (Wnt-C59 + Alpelisib; first compound 0.01 µM) | relative viability (Wnt-C59 + Alpelisib; first compound 0.03162 µM) | relative viability (Wnt-C59 + Alpelisib; first compound 0.1 µM) | relative viability (Lapatinib + Crizotinib; first compound 0.02 µM) | relative viability (Lapatinib + Crizotinib; first compound 0.06325 µM)
1 | LCLC-97TM1 | 0.287 | 0.303 | 0.362 | 0.206 | 0.733 | 0.765 | 0.901 | 0.706 | 0.593 | 0.472 | 0.357 | 0.268 | 0.256 | 0.19 | 0.2 | – | –
2 | RERF-LC-KJ | 0.965 | 0.934 | 1.19 | 0.912 | 0.746 | 0.671 | 0.825 | 0.715 | 0.86 | 0.876 | 0.726 | 0.743 | 0.764 | 0.853 | 0.883 | 0.803 | 0.802
3 | HCC-827 | 0.274 | 0.27 | 0.219 | 0.175 | 0.901 | 0.922 | 1.01 | 0.77 | 0.923 | 0.88 | 0.513 | 0.993 | 0.979 | 0.971 | 0.966 | 0.915 | 0.944
4 | NCI-H1944 | 0.474 | 0.482 | 0.452 | 0.534 | 0.621 | 0.552 | 0.57 | 0.621 | 0.811 | 0.808 | 0.56 | 0.767 | 0.755 | 0.785 | 0.755 | – | –
5 | HARA | 0.408 | 0.348 | 0.38 | 1.61 | 0.729 | 0.533 | 0.511 | 0.481 | 0.932 | 0.934 | 0.447 | 0.773 | 0.645 | 0.959 | 0.787 | 1.04 | 1.28
6 | NCI-H460 | 0.554 | 0.605 | 0.568 | 0.673 | 0.688 | 0.711 | 0.743 | 0.648 | 1.11 | 0.802 | 0.983 | 0.45 | 0.46 | 0.472 | 0.413 | 0.892 | 0.953
7 | NCI-H358 | 0.448 | 0.582 | 0.588 | 0.617 | 0.803 | 0.589 | 0.8 | 0.65 | 0.523 | 0.363 | 0.26 | 0.917 | 0.825 | 0.901 | 0.905 | 0.577 | –
8 | HCC-366 | 0.271 | 0.247 | 0.286 | 0.322 | 0.338 | 0.2 | 0.309 | 0.335 | 0.713 | 0.564 | 0.372 | 0.453 | 0.287 | 0.412 | 0.297 | – | 0.418
9 | ABC-1 | 0.89 | 0.686 | 0.488 | 0.518 | 1.05 | 1.07 | 1.07 | 1.18 | 1.32 | 1.22 | 0.967 | 1.26 | 1.01 | 0.718 | 0.876 | – | 0.928
